These results are taken from patent US20160046618A1, “Cyclopropyl Fused Thiazin-2-Amine Compounds as Beta-Secretase Inhibitors and Methods of Use” (AMGEN INC., priority 2014, published 2016).

As usually defined, the IC50 is the concentration needed to halve the response being measured.

Assay [1] deals with human recombinant BACE1 (Homo sapiens (Human), UniProt P56817). In words: In vitro enzymatic BACE1 FRET assay. The format is biochemical. The following applies: read-out: IC50 IP (μM) BACE1 enzyme. In outline:
(§1)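 Ni-NTA-purified recombinant protease incubated with compound; reaction started with 50 nM FRET peptide substrate (fluorophore/quencher flanking the BACE cleavage site) and run 1 h. Stopped with Tris buffer raising pH to neutral; fluorescence read at ex 488/em 590 nm.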

Assay [2] addresses human recombinant BACE2 (Homo sapiens (Human), UniProt Q9Y5Z0). In words: In vitro enzymatic BACE2 FRET assay. Type of assay: biochemical. To be noted: read-out: IC50 IP (μM) BACE2 enzyme. In a few lines: as §1
In assay [3] the test system is Aβ40 in conditioned medium of cells stably expressing Amyloid Precursor Protein (APP). In words: In vitro BACE-1 cell-based assay (Aβ40 sandwich ELISA). The following applies: read-out: IC50 IP (μM) BACE1 cell. In a few lines:
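APP-expressing cells treated 24 h at 37 °C with compound in 10-point dose response (top 100 μM or 10 μM, 0.1% DMSO final). Secreted Aβ40 in conditioned medium quantified by sandwich ELISA (pAb40 capture, biotinylated 6E10 detection, time-resolved europium fluorescence); IC50 from percent inhibition versus concentration.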

Assay [4] has as its target Recombinant Cat D (Homo sapiens (Human), UniProt P07339). In words: In vitro enzymatic Cathepsin D (Cat D) FRET assay. Type of assay: biochemical. The following applies: read-out: IC50 IP (μM) CatD. In a few lines:
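Cleavage of a 20 nM fluorophore/quencher peptide by CHO-expressed recombinant Cat D proceeded for one hour at pH 3.5 (0.05 M citrate, 5 mM CHAPS, 10% DMSO final). Tris addition neutralized the pH to end the reaction. Fluorescence was then measured (ex 500 nm/em 580 nm).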

human recombinant BACE2, sequence (Q9Y5Z0 63-518): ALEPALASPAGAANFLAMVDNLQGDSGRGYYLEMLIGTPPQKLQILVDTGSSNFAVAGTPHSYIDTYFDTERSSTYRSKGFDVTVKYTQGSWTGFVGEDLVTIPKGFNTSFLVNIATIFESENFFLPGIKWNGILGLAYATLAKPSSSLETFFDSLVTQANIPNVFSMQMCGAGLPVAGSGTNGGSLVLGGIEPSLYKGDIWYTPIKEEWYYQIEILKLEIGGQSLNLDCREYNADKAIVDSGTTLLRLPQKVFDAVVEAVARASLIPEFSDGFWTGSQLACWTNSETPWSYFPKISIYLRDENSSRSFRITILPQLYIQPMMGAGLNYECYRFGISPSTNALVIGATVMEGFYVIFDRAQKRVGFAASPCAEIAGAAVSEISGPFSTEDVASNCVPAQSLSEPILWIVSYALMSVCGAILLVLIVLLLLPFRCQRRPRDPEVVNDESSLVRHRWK
human recombinant BACE1, sequence (P56817 46-501): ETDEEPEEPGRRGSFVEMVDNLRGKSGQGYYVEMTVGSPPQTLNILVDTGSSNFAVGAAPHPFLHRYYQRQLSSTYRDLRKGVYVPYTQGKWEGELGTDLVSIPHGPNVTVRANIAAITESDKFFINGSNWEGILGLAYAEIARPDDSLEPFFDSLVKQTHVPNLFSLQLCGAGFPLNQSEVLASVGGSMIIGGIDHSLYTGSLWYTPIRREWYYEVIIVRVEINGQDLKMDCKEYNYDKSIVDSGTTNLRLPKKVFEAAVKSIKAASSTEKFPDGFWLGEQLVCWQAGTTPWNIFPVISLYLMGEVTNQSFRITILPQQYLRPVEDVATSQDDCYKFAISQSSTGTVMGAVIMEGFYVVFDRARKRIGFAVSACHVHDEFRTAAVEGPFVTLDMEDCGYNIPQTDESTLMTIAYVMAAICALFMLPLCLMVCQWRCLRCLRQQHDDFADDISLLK
Recombinant Cat D, sequence (P07339 65-412): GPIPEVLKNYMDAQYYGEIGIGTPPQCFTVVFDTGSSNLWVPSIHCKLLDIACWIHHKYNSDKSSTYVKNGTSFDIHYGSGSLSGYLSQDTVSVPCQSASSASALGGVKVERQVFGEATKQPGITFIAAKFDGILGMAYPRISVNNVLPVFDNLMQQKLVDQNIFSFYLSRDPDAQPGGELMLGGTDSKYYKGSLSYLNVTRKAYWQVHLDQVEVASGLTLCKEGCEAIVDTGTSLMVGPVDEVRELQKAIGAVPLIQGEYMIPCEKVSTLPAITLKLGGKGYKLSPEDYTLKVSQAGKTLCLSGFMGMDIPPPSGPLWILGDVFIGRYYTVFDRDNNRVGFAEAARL

Regarding `NC1=N[C@](CF)(c2cc(NC(=O)c3ccc(Cl)cn3)ccc2F)[C@@H]2C[C@]2(/C=C/CO)S1` [Example 756, N-(3-((1R,5S,6S)-3-amino-5-(fluoromethyl)-1-((E)-3-hydroxyprop-1-en-1-yl)-2-thia-4-azabicyclo[4.1.0]hept-3-en-5-yl)-4-fluorophenyl)-5-chloropicolinamide], the concentration for half-maximal inhibition (IC50) is 0.00373 µM in assay [1], less than 0.00203 µM in assay [2], 0.00659 µM in assay [3] and more than 400 µM in assay [4].
On the same counts, the results for `NC1=N[C@](CF)(c2cc(NC(=O)c3ccc(Cl)cn3)ccc2F)[C@@H]2C[C@]2(/C=C/C(=O)O)S1` [Example 757, (E)-3-((1R,5S,6S)-3-amino-5-(5-(5-chloropicolinamido)-2-fluorophenyl)-5-(fluoromethyl)-2-thia-4-azabicyclo[4.1.0]hept-3-en-1-yl)acrylic acid] are 0.000176 µM, less than 0.00203 µM, 0.0498 µM and 458 µM.
For `NC1=N[C@](CF)(c2cc(NC(=O)c3ccc(Cl)cn3)ccc2F)[C@@H]2C[C@]2(CCCO)S1` [Example 758, N-(3-((1S,5S,6S)-3-amino-5-(fluoromethyl)-1-(3-hydroxypropyl)-2-thia-4-azabicyclo[4.1.0]hept-3-en-5-yl)-4-fluorophenyl)-5-chloropicolinamide], in that order: 0.00156 µM, less than 0.00203 µM, 0.00195 µM and 2070 µM.
On the same counts, the results for `NC(=O)/C=C/[C@]12C[C@H]1[C@@](CF)(c1cc(NC(=O)c3ccc(Cl)cn3)ccc1F)N=C(N)S2` [Example 759, N-(3-((1R,5S,6S)-3-amino-1-((E)-3-amino-3-oxoprop-1-en-1-yl)-5-(fluoromethyl)-2-thia-4-azabicyclo[4.1.0]hept-3-en-5-yl)-4-fluorophenyl)-5-chloropicolinamide] are 0.00101 µM, less than 0.00203 µM, 0.00265 µM and more than 400 µM.
Regarding `CNC(=O)/C=C/[C@]12C[C@H]1[C@@](CF)(c1cc(NC(=O)c3ccc(Cl)cn3)ccc1F)N=C(N)S2` [Example 760, N-(3-((1R,5S,6S)-3-amino-5-(fluoromethyl)-1-((E)-3-(methylamino)-3-oxoprop-1-en-1-yl)-2-thia-4-azabicyclo[4.1.0]hept-3-en-5-yl)-4-fluorophenyl)-5-chloropicolinamide], the half-inhibitory concentration (IC50) in assay [1] was 0.000415 µM; in assay [2] it was less than 0.00203 µM; in assay [3], 0.00265 µM; in assay [4] it was 779 µM.
For `CN(C)C(=O)/C=C/[C@]12C[C@H]1[C@@](CF)(c1cc(NC(=O)c3ccc(Cl)cn3)ccc1F)N=C(N)S2` [Example 761, N-(3-((1R,5S,6S)-3-amino-1-((E)-3-(dimethylamino)-3-oxoprop-1-en-1-yl)-5-(fluoromethyl)-2-thia-4-azabicyclo[4.1.0]hept-3-en-5-yl)-4-fluorophenyl)-5-chloropicolinamide], in that order: 0.000794 µM, less than 0.00203 µM, 0.00152 µM and 364 µM.
For `C#CCOc1cnc2c(Nc3ccc(F)c([C@@]4(CF)N=C(N)S[C@H]5C[C@H]54)c3)nccc2n1` [Example 762, N-(3-((1S,5S,6S)-3-amino-5-(fluoromethyl)-2-thia-4-azabicyclo[4.1.0]hept-3-en-5-yl)-4-fluorophenyl)-2-(2-propyn-1-yloxy)pyrido[3,4-b]pyrazin-5-amine], in that order: 0.00303 µM, 0.0384 µM, 0.0142 µM and 669 µM.
On the same counts, the results for `NC1=N[C@](CF)(c2cc(Nc3ncnc4cc(OCc5ncco5)cnc34)ccc2F)[C@@H]2C[C@@H]2S1` [Example 763, N-(3-((1S,5S,6S)-3-amino-5-(fluoromethyl)-2-thia-4-azabicyclo[4.1.0]hept-3-en-5-yl)-4-fluorophenyl)-7-(1,3-oxazol-2-ylmethoxy)pyrido[3,2-d]pyrimidin-4-amine] are 0.00849 µM, 0.239 µM, 0.0048 µM and 1110 µM.
Turning to `NC1=N[C@](CF)(c2cc(NC(=O)c3ccc(Cl)cn3)ccc2F)[C@@H]2C[C@]2(/C=C/C(=O)N2CCOCC2)S1` [Example 764, N-(3-((1R,5S,6S)-3-amino-5-(fluoromethyl)-1-((E)-3-morpholino-3-oxoprop-1-en-1-yl)-2-thia-4-azabicyclo[4.1.0]hept-3-en-5-yl)-4-fluorophenyl)-5-chloropicolinamide], the 50% inhibitory concentration (IC50) in assay [1] is 0.00073 µM; in assay [2] it was less than 0.00203 µM; in assay [3], 0.000856 µM; in assay [4], 518 µM.
Consider `CN(C)C(=O)CC[C@]12C[C@H]1[C@@](CF)(c1cc(NC(=O)c3ccc(Cl)cn3)ccc1F)N=C(N)S2` [Example 765, N-(3-((1S,5S,6S)-3-amino-1-(3-(dimethylamino)-3-oxopropyl)-5-(fluoromethyl)-2-thia-4-azabicyclo[4.1.0]hept-3-en-5-yl)-4-fluorophenyl)-5-chloropicolinamide], for which the IC50 was 0.000706 µM in assay [1], less than 0.00203 µM in assay [2], 0.0011 µM in assay [3] and 1070 µM in assay [4].
Regarding `COC1CN(C(=O)/C=C/[C@]23C[C@H]2[C@@](CF)(c2cc(NC(=O)c4ccc(Cl)cn4)ccc2F)N=C(N)S3)C1` [Example 766, N-(3-((1R,5S,6S)-3-amino-5-(fluoromethyl)-1-((E)-3-(3-methoxyazetidin-1-yl)-3-oxoprop-1-en-1-yl)-2-thia-4-azabicyclo[4.1.0]hept-3-en-5-yl)-4-fluorophenyl)-5-chloropicolinamide], the 50% inhibitory concentration (IC50) was 0.00105 µM in assay [1], less than 0.00203 µM in assay [2], 0.0031 µM in assay [3] and 848 µM in assay [4].
On the same counts, the results for `COCCNC(=O)/C=C/[C@]12C[C@H]1[C@@](CF)(c1cc(NC(=O)c3ccc(Cl)cn3)ccc1F)N=C(N)S2` [Example 767, N-(3-((1R,5S,6S)-3-amino-5-(fluoromethyl)-1-((E)-3-((2-methoxyethyl)amino)-3-oxoprop-1-en-1-yl)-2-thia-4-azabicyclo[4.1.0]hept-3-en-5-yl)-4-fluorophenyl)-5-chloropicolinamide] are 0.00102 µM, less than 0.00203 µM, 0.00143 µM and 602 µM.
`C#CCOc1cnc2c(Nc3ccc(F)c([C@@]4(CF)N=C(N)S[C@@]5(/C=C/C(=O)N(C)C)C[C@H]54)c3)nccc2n1` [Example 768, (2E)-3-((1R,5S,6S)-3-amino-5-(fluoromethyl)-5-(2-fluoro-5-((2-(2-propyn-1-yloxy)pyrido[3,4-b]pyrazin-5-yl)amino)phenyl)-2-thia-4-azabicyclo[4.1.0]hept-3-en-1-yl)-N,N-dimethyl-2-propenamide]: the IC50 in assay [1] came out at 0.00119 µM; in assay [2], 0.00612 µM; in assay [3], 0.00113 µM; in assay [4], 406 µM.
